Numbers after ± are expanded uncertainties.
Conditions: Crystal; visual observation

Normal melting temperature: 198.40 ± 1.2 °C
SMILES: F[P-](F)(F)(F)(F)F.F[P-](F)(F)(F)(F)F.c1cc[n+](CCCCC[n+]2ccccc2)cc1 [1,1'-(1,5-pentanediyl)bis-pyridinium hexafluorophosphate]

— the NIST ThermoML archive (doi:10.1021/je900355h)
